Legend:
Assay in all cases: relative viability (nuclei count vs DMSO), 5 days (fraction); higher = more cells survive
Tipifarnib + Pictilisib = compound: Cn1cncc1[C@@](N)(c1ccc(Cl)cc1)c1ccc2c(c1)c(-c1cccc(Cl)c1)cc(=O)n2C [Tipifarnib] + CS(=O)(=O)N1CCN(Cc2cc3nc(-c4cccc5[nH]ncc45)nc(N4CCOCC4)c3s2)CC1 [Pictilisib] (partner 1 µM)
Method in brief: (§1)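 Each reported value is a median over duplicate plates. It expresses relative viability: treated-well nuclei count divided by vehicle-well nuclei count. Lung cancer cell lines in 1536-well plates were dosed by pin tool a day after seeding, alone with one drug or with a fixed anchor-drug dose plus five library-drug doses (not always all listed) in √10 steps, and nuclei were counted after 5 days.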

Tipifarnib + Linsitinib = compound: Cn1cncc1[C@@](N)(c1ccc(Cl)cc1)c1ccc2c(c1)c(-c1cccc(Cl)c1)cc(=O)n2C [Tipifarnib] + C[C@]1(O)C[C@@H](c2nc(-c3ccc4ccc(-c5ccccc5)nc4c3)c3c(N)nccn32)C1 [Linsitinib] (partner 1 µM)
Method in brief: as §1

Tipifarnib + Alpelisib = compound: Cn1cncc1[C@@](N)(c1ccc(Cl)cc1)c1ccc2c(c1)c(-c1cccc(Cl)c1)cc(=O)n2C [Tipifarnib] + Cc1nc(NC(=O)N2CCC[C@H]2C(N)=O)sc1-c1ccnc(C(C)(C)C(F)(F)F)c1 [Alpelisib] (partner 2 µM)
Method in brief: as §1

Tipifarnib + Decitabine = compound: Cn1cncc1[C@@](N)(c1ccc(Cl)cc1)c1ccc2c(c1)c(-c1cccc(Cl)c1)cc(=O)n2C [Tipifarnib] + Nc1ncn([C@H]2C[C@H](O)[C@@H](CO)O2)c(=O)n1 [Decitabine] (partner 2 µM)
Method in brief: as §1

Cell Line	relative viability (Tipifarnib + Pictilisib; first compound 0.01 µM)	relative viability (Tipifarnib + Pictilisib; first compound 0.03162 µM)	relative viability (Tipifarnib + Pictilisib; first compound 0.1 µM)	relative viability (Tipifarnib + Pictilisib; first compound 0.3162 µM)	relative viability (Tipifarnib + Pictilisib; first compound 1 µM)	relative viability (Tipifarnib + Linsitinib; first compound 0.01 µM)	relative viability (Tipifarnib + Linsitinib; first compound 0.03162 µM)	relative viability (Tipifarnib + Linsitinib; first compound 0.1 µM)	relative viability (Tipifarnib + Linsitinib; first compound 0.3162 µM)	relative viability (Tipifarnib + Linsitinib; first compound 1 µM)	relative viability (Tipifarnib + Alpelisib; first compound 0.01 µM)	relative viability (Tipifarnib + Alpelisib; first compound 0.03162 µM)	relative viability (Tipifarnib + Alpelisib; first compound 0.1 µM)	relative viability (Tipifarnib + Alpelisib; first compound 0.3162 µM)	relative viability (Tipifarnib + Alpelisib; first compound 1 µM)	relative viability (Tipifarnib + Decitabine; first compound 0.01 µM)	relative viability (Tipifarnib + Decitabine; first compound 0.03162 µM)	relative viability (Tipifarnib + Decitabine; first compound 0.1 µM)	relative viability (Tipifarnib + Decitabine; first compound 0.3162 µM)	relative viability (Tipifarnib + Decitabine; first compound 1 µM)
NCI-H1993	0.686	0.812	0.861	0.888	0.913	0.772	0.746	0.73	0.732	0.789	0.71	0.679	0.675	0.677	0.671	0.666	0.551	0.579	0.528	0.545
NCI-H1437	0.457	0.466	0.45	0.343	0.212	1.15	0.993	1.04	0.816	0.698	1.02	1.02	0.931	0.76	0.688	0.597	0.618	0.613	0.635	0.593
UMC-11	0.676	0.511	0.495	0.445	0.31	0.86	0.632	0.563	0.523	0.577	0.939	0.691	0.504	0.409	0.487	0.569	0.53	0.524	0.322	0.405
201T	0.633	0.682	0.664	0.559	0.551	1.04	1.04	0.989	0.949	1.07	1.01	1.04	1.04	0.98	0.977	0.875	0.841	0.88	0.783	0.816
NCI-H358	0.387	0.367	0.362	0.347	0.268	0.782	0.691	0.664	0.512	0.48	0.918	0.748	0.8	0.504	0.431	0.202	0.203	0.243	0.278	0.183
LOU-NH91	0.517	0.446	0.499	0.501	0.388	0.937	0.819	0.838	0.736	0.691	0.706	0.702	0.644	0.545	0.583	0.804	0.791	0.801	0.664	0.738
HOP-62	0.506	0.158	0.24	0.3	0.26	0.916	0.64	0.38	0.304	0.301	1.31	0.824	0.377	0.281	0.325	0.204	0.225	0.196	0.254	0.191
NCI-H1915	0.581	0.513	0.511	0.397	0.31	0.902	0.695	0.631	0.542	0.583	0.817	0.624	0.544	0.48	0.457	0.272	0.245	0.284	0.232	0.257
NCI-H3122	0.6	0.489	0.442	0.347	0.27	1.02	0.835	0.784	0.663	0.726	0.665	0.598	0.527	0.402	0.401	0.414	0.407	0.415	0.397	0.308
NCI-H1651	0.632	0.566	0.562	0.512	0.319	1.18	1.06	0.964	0.892	0.961	1.32	1.01	1.03	0.837	0.811	0.667	0.597	0.658	0.761	0.421
NCI-H838	0.404	0.368	0.324	0.3	0.279	0.955	0.826	0.684	0.628	0.6	1.02	0.777	0.712	0.553	0.659	0.466	0.452	0.46	0.413	0.38
NCI-H596	0.392	0.365	0.354	0.373	0.312	1	1.03	0.854	0.934	0.844	0.516	0.547	0.0161	0.436	0.356	0.96	0.918	0.963	0.558	0.824
SK-LU-1	0.574	0.568	0.424	0.378	0.299	0.986	0.728	0.642	0.631	0.67	1.06	0.655	0.528	0.49	0.516	0.728	0.627	0.706	0.594	0.59
NCI-H441	0.489	0.461	0.463	0.328	0.212	0.67	0.455	0.413	0.402	0.33	0.712	1.06	0.54	0.307	0.379	0.217	0.241	0.237	0.204	0.183
NCI-H650	1.14	0.746	0.647	0.557	0.351	0.825	0.706	0.662	0.526	0.348	1.07	0.988	0.827	0.661	0.6	0.352	0.33	0.341	0.251	0.305
SK-MES-1	0.349	0.401	0.395	0.247	0.239	1.08	0.917	0.985	0.792	0.809	1.03	0.897	0.634	0.648	0.501	0.465	0.336	0.35	0.421	0.33

— the supplement of paper PMC10307832
